Reference: patent publication US12310975B2, “Modulators of BCL6 proteolysis and associated methods of use” (Arvinas Operations, Inc., priority 2019, dated 2025)

What was measured:
BCL6 [1] = biological target: T1, BCL6 (Homo sapiens (Human), UniProt P41182); assay: Immunofluorescence high content imaging of BCL6 degradation in T47D cells; type: cell-based; conditions: for Dmax: T47D; for DC50: class symbols A-D, read-out: EC50 (nM)*
Procedure, shortened: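 T47D, 3 d compound exposure, 11-pt 3-fold series, top 0.1 or 1 μM final. Fix 4% PFA, Triton permeabilize, anti-BCL6 primary overnight 4 °C, Alexa-488 secondary. High-content imaging 10×, 4 fields/well, top-hat smoothing.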

BCL6 [2] = biological target: T1, BCL6; assay: BCL6 TR-FRET assay (BCL6-Avitag-Biotin / BCoR-Cy5 peptide); type: binding
Procedure, shortened: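 After 30 min room-temperature preincubation of compound titrations with 2 nM biotinylated BCL6-Avitag, 100 nM Cy5-labelled BCoR peptide plus 2 nM Eu-streptavidin were added and TR-FRET read 2 h later. HEPES pH 7.5/125 mM NaCl buffer with Triton X, glutathione (or DTT) and BSA.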

[3] = class symbols A-D, read-out: IC50 (nM)***

IC50 (BCL6 [1]) [nM]	Dmax (BCL6 [1]) [%]	EC50 (BCL6 [2]) [nM]	IC50 (BCL6 [2]; read-out: IC50) [nM]	Dmax (BCL6 [1]; maximum, class symbols A-C) [%]	DC50 (BCL6 [1]) [nM]	IC50 (BCL6 [2]; [3]) [nM]	SMILES
≥ 100	50 to 70	> 100					CNC(=O)COc1cc2cc(Nc3nc(N4CCO[C@H](COc5ccc6c(c5)C(=O)N(C5CCC(=O)NC5=O)C6=O)C4)ncc3Cl)ccc2n(C)c1=O (stereo partly drawn) [compound 228, 2-((6-((5-chloro-2-((2S)-2-(((2-(2,6-dioxopiperidin-3-yl)-1,3-dioxoisoindolin-5-yl)oxy)methyl)morpholino)pyrimidin-4-yl)amino)-1-methyl-2-oxo-1,2-dihydroquinolin-3-yl)oxy)-N-methylacetamide]
≥ 100		< 10					CNC(=O)COc1cc2cc(Nc3nc(N4CCN5CCN(c6ccc7c(c6)C(=O)N(C6CCC(=O)NC6=O)C7=O)CC5C4)ncc3Cl)ccc2n(C)c1=O (centres unmarked) [compound 234, 2-((6-((5-chloro-2-(8-(2-(2,6-dioxopiperidin-3-yl)-1,3-dioxoisoindolin-5-yl)octahydro-2H-pyrazino[1,2-a]pyrazin-2-yl)pyrimidin-4-yl)amino)-1-methyl-2-oxo-1,2-dihydroquinolin-3-yl)oxy)-N-methylacetamide]
	≥ 70		≥ 100				CNC(=O)COc1cc2cc(Nc3nc(N4CCC[C@H](COc5cccc6c5C(=O)N(C5CCC(=O)NC5=O)C6=O)C4)ncc3Cl)ccc2n(CC2COC2)c1=O (stereo partly drawn) [compound 491, 2-{[6-({5-chloro-2-[(3S)-3-({[2-(2,6-dioxopiperidin-3-yl)-1,3-dioxo-2,3-dihydro-1H-isoindol-4-yl]oxy}methyl)piperidin-1-yl]pyrimidin-4-yl}amino)-1-[(oxetan-3-yl)methyl]-2-oxo-1,2-dihydroquinolin-3-yl]oxy}-N-methylacetamide]
				50 to 70	10 to 50	< 10	CNC(=O)COc1cc2cc(Nc3nc(N4CCC(CN5CCN(c6ccc7c(c6)CN(C6CCC(=O)NC6=O)C7=O)CC5)CC4)ncc3Cl)ccc2n(C)c1=O (centres unmarked) [compound 151, 2-((6-((5-chloro-2-(4-((4-(2-(2,6-dioxopiperidin-3-yl)-1-oxoisoindolin-5-yl)piperazin-1-yl)methyl)piperidin-1-yl)pyrimidin-4-yl)amino)-1-methyl-2-oxo-1,2-dihydroquinolin-3-yl)oxy)-N-methylacetamide]
	50 to 70		< 10				CNC(=O)COc1cc2cc(Nc3nc(N4CCC(CN5CCC6(CC5)CCN(c5ccc7c(c5)C(=O)N(C5CCC(=O)NC5=O)C7=O)C6)CC4)ncc3Cl)ccc2n(C(C)C)c1=O (centres unmarked) [compound 489, 2-{[6-({5-chloro-2-[4-({2-[2-(2,6-dioxopiperidin-3-yl)-1,3-dioxo-2,3-dihydro-1H-isoindol-5-yl]-2,8-diazaspiro[4.5]decan-8-yl}methyl)piperidin-1-yl]pyrimidin-4-yl}amino)-2-oxo-1-(propan-2-yl)-1,2-dihydroquinolin-3-yl]oxy}-N-methylacetamide]
50 to 100	< 50	< 10					CNC(=O)COc1cc2cc(Nc3nc(N4CCN(CC5CCN(c6ccc(C(=O)NC7CCC(=O)NC7=O)nn6)CC5)CC4)ncc3Cl)ccc2n(C)c1=O (centres unmarked) [compound 278, 6-[4-({4-[5-chloro-4-({1-methyl-3-[(methylcarbamoyl)methoxy]-2-oxo-1,2-dihydroquinolin-6-yl}amino)pyrimidin-2-yl]piperazin-1-yl}methyl)piperidin-1-yl]-N-(2,6-dioxopiperidin-3-yl)pyridazine-3-carboxamide]
				< 50	> 100	10 to 50	CNC(=O)COc1cc2cc(Nc3nc(N4CCCC(COc5ccc(C6CCN(CC#Cc7ccc8c(c7)CN(C7CCC(=O)NC7=O)C8=O)CC6)cc5)C4)ncc3Cl)ccc2n(C)c1=O (centres unmarked) [compound 167, 2-((6-((5-chloro-2-(3-((4-(1-(3-(2-(2,6-dioxopiperidin-3-yl)-1-oxoisoindolin-5-yl)prop-2-yn-1-yl)piperidin-4-yl)phenoxy)methyl)piperidin-1-yl)pyrimidin-4-yl)amino)-1-methyl-2-oxo-1,2-dihydroquinolin-3-yl)oxy)-N-methylacetamide]
≥ 100	< 50	> 100					CC(=O)[C@@H](C)Oc1cc2cc(Nc3nc(N4CCC(CN5CCN(c6ccc7c(c6)C(=O)N([C@@H]6CCC(=O)NC6=O)C7=O)CC5)CC4)ncc3Cl)ccc2n(C)c1=O [compound 218, 5-(4-((1-(5-chloro-4-((1-methyl-2-oxo-3-(((R)-3-oxobutan-2-yl)oxy)-1,2-dihydroquinolin-6-yl)amino)pyrimidin-2-yl)piperidin-4-yl)methyl)piperazin-1-yl)-2-((R)-2,6-dioxopiperidin-3-yl)isoindoline-1,3-dione]
				< 50	> 100	10 to 50	CC(=O)COc1cc2cc(Nc3nc(N4CCC(CCOC5CN(c6ccc7c(c6)C(=O)N(C6CCC(=O)NC6=O)C7=O)C5)CC4)ncc3Cl)ccc2n(C)c1=O (centres unmarked) [compound 164, 5-(3-(2-(1-(5-chloro-4-((1-methyl-2-oxo-3-(2-oxopropoxy)-1,2-dihydroquinolin-6-yl)amino)pyrimidin-2-yl)piperidin-4-yl)ethoxy)azetidin-1-yl)-2-(2,6-dioxopiperidin-3-yl)isoindoline-1,3-dione]
				< 50	10 to 50	< 10	CNC(=O)COc1cc2cc(Nc3nc(N4CCC(N(C)C5CCN(CC6CCN(c7ccc(C#Cc8ccc9c(c8)CN(C8CCC(=O)NC8=O)C9=O)cc7)CC6)CC5)CC4)ncc3Cl)ccc2n(C)c1=O (centres unmarked) [compound 138, 2-((6-((5-chloro-2-(4-((1-((1-(4-((2-(2,6-dioxopiperidin-3-yl)-1-oxoisoindolin-5-yl)ethynyl)phenyl)piperidin-4-yl)methyl)piperidin-4-yl) (methyl)amino)piperidin-1-yl)pyrimidin-4-yl)amino)-1-methyl-2-oxo-1,2-dihydroquinolin-3-yl)oxy)-N-methylacetamide]
	< 50		< 10				CNC(=O)COc1cc2cc(Nc3nc(N4CCC5(CC4)CCN(C4CCN(c6cccc7c6C(=O)N(C6CCC(=O)NC6=O)C7=O)CC4)C5)ncc3Cl)ccc2n(C(C)C)c1=O (centres unmarked) [compound 520, 2-[(6-{[5-chloro-2-(2-{1-[2-(2,6-dioxopiperidin-3-yl)-1,3-dioxo-2,3-dihydro-1H-isoindol-4-yl]piperidin-4-yl}-2,8-diazaspiro[4.5]decan-8-yl)pyrimidin-4-yl]amino}-2-oxo-1-(propan-2-yl)-1,2-dihydroquinolin-3-yl)oxy]-N-methylacetamide]
	≥ 70		< 10				CNC(=O)COc1cc2cc(Nc3nc(N4CCC(OC5CC6(CCN(c7cccc8c7CN(C7CCC(=O)NC7=O)C8=O)CC6)C5)CC4)ncc3Cl)ccc2n(C(C)C)c1=O (centres unmarked) [compound 446, 2-{[6-({5-chloro-2-[4-({7-[2-(2,6-dioxopiperidin-3-yl)-1-oxo-2,3-dihydro-1H-isoindol-4-yl]-7-azaspiro[3.5]nonan-2-yl}oxy)piperidin-1-yl]pyrimidin-4-yl}amino)-2-oxo-1-(propan-2-yl)-1,2-dihydroquinolin-3-yl]oxy}-N-methylacetamide]
				50 to 70	10 to 50	10 to 50	CC(=O)COc1cc2cc(Nc3nc(N4CCN(C(=O)C5CCN(c6ccc7c(c6)C(=O)N(C6CCC(=O)NC6=O)C7=O)CC5)CC4)ncc3Cl)ccc2n(C)c1=O (centres unmarked) [compound 163, 5-(4-(4-(5-chloro-4-((1-methyl-2-oxo-3-(2-oxopropoxy)-1,2-dihydroquinolin-6-yl)amino)pyrimidin-2-yl)piperazine-1-carbonyl)piperidin-1-yl)-2-(2,6-dioxopiperidin-3-yl)isoindoline-1,3-dione]
	50 to 70		< 10				CNC(=O)COc1cc2cc(Nc3nc(N4CCC(C5(N6CCC(c7ccc8c(c7)C(=O)N(C7CCC(=O)NC7=O)C8=O)CC6)CC5)CC4)ncc3Cl)ccc2n(C(C)C)c1=O (centres unmarked) [compound 488, 2-{[6-({5-chloro-2-[4-(1-{4-[2-(2,6-dioxopiperidin-3-yl)-1,3-dioxo-2,3-dihydro-1H-isoindol-5-yl]piperidin-1-yl}cyclopropyl)piperidin-1-yl]pyrimidin-4-yl}amino)-2-oxo-1-(propan-2-yl)-1,2-dihydroquinolin-3-yl]oxy}-N-methylacetamide]
50 to 100	50 to 70	50 to 100					CNC(=O)COc1cc2cc(Nc3cc(N4CCC(CN5CCN(c6ccc7c(c6)C(=O)N(C6CCC(=O)NC6=O)C7=O)CC5)CC4)ncc3Cl)ccc2n(C)c1=O (centres unmarked) [compound 197, 2-((6-((5-chloro-2-(4-((4-(2-(2,6-dioxopiperidin-3-yl)-1,3-dioxoisoindolin-5-yl)piperazin-1-yl)methyl)piperidin-1-yl)pyridin-4-yl)amino)-1-methyl-2-oxo-1,2-dihydroquinolin-3-yl)oxy)-N-methylacetamide]
	< 50		10 to 50				CNC(=O)COc1cc2cc(Nc3nc(N4CCC(O[C@H]5C[C@@H](Oc6cccc7c6C(=O)N(C6CCC(=O)NC6=O)C7=O)CN(C)C5)CC4)ncc3Cl)ccc2n(C(C)C)c1=O (stereo partly drawn) [compound 477, 2-[(6-{[5-chloro-2-(4-{[(3S,5R)-5-{[2-(2,6-dioxopiperidin-3-yl)-1,3-dioxo-2,3-dihydro-1H-isoindol-4-yl]oxy}-1-methylpiperidin-3-yl]oxy}piperidin-1-yl)pyrimidin-4-yl]amino}-2-oxo-1-(propan-2-yl)-1,2-dihydroquinolin-3-yl)oxy]-N-methylacetamide]
